Results on 2 molecules are retold here after US20130095151A1, “BROAD SPECTRUM SUNSCREEN COMPOSITION COMPRISING 2 HYDROXY SULFOBETAINE OF CINNAMIDOALKYL AMINE” (GALAXY SURFACTANTS LTD., priority 2010, published 2013).

The conditions of data set [1]: free acid, not neutralised; cited from earlier work.
The nature of data set [2]: photostability: remaining content of AVB after exposing the formulas to sunlight, UV spectrophotometer vs unexposed control. Format: physicochemical. As to conditions: in sunscreen creams with AVB/OCN. The method, then: Furthermore, the formulas I to 4 above where tested for photostability by exposing the formulas to sunlight for three hours (10 am to 1 pm, 2 Jun. 2011, Navi Mumbai, INDIA). The remaining content of AVB was measured using UV Spectrophotometer and compared to unexposed control.

Regarding `O=S(=O)(O)c1ccc2[nH]c(-c3ccccc3)nc2c1` [Phenylbenzimidazole Sulfonic Acid], the solubility in water in data set [1] is 0.25 % w/w.
Turning to `COc1ccc(/C=C/C(=O)NCCC[N+](C)(C)CC(O)CS(=O)(=O)[O-])cc1` (centres unmarked) [SunBeat, 3-(N-p-Methoxycinnamidopropyl, N,N-Dimethyl Ammonium)-2-Hydroxypropane-1-Sulphonate], the “photostability compared to PBSA and OMC” value in data set [2] was “enhanced photostability”.
